Article PMC10873978, “Novel tetrahydroisoquinolines as DHFR and CDK2 inhibitors: synthesis, characterization, anticancer activity and antioxidant properties” (BMC Chemistry, 2024)
Values joined by “and” are separate entries in the source; they are usually repeats but may differ in a detail not shown here. Equal values may be shown once. Read-outs that look alike come from different tables or passages of the source.

Assays:
MCF7 cell line = test: In vitro cytotoxic activity, MTT method, MCF7; assay type: cell-based, human
Method in brief: (§1)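 Monolayers formed over 24 h at 37 °C from 10^5 cells/mL were treated with graded compound concentrations, doxorubicin serving as reference. Viability came from MTT reduction over 1–5 h (5% CO2), absorbance at 560 nm with 620 nm background subtraction.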

A549 cell line = test: In vitro cytotoxic activity, MTT method, A549; conditions: Homo sapiens, read-out: IC50 ± SD
Method in brief: as §1

[1] = Cytotoxicity on normal cell line WI-38; assay type: cell-based, human; conditions: human, % viability
WI-38 cell line = test: Cytotoxicity on normal cell line WI-38; assay type: cell-based, human; conditions: for IC50: read-out: Toxicity on WI38 IC50 ± SD; for % viability: human
IKB kinase B = biological target: T1, IKB kinase B (Homo sapiens, UniProt O14920); test: IKB kinase inhibition; assay type: biochemical; conditions: IκB
T1 sequence (O14920 1-756): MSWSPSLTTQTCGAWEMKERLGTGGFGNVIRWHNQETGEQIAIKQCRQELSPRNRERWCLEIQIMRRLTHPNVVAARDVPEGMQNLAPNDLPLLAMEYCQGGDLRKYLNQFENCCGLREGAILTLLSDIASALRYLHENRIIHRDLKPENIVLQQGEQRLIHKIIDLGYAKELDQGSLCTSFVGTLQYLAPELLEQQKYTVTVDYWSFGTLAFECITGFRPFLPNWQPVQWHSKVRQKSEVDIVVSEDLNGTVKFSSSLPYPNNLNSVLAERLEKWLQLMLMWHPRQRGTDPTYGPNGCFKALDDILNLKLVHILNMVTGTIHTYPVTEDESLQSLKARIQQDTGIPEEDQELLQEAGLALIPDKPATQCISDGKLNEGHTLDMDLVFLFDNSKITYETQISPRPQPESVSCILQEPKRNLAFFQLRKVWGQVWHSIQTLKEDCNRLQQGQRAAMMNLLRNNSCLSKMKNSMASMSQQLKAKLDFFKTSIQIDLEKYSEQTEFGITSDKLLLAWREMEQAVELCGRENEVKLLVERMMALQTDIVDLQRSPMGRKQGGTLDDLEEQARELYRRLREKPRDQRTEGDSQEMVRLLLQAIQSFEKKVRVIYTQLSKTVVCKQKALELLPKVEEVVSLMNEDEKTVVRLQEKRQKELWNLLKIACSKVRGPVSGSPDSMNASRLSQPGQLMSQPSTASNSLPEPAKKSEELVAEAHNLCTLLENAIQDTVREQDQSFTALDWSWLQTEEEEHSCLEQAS

COc1cccc2c1C(=O)c1c(O)c3c(c(O)c1C2=O)C[C@@](O)(C(=O)CO)C[C@@H]3O[C@H]1C[C@H](N)[C@H](O)[C@H](C)O1 [Doxorubicin, reference compound] gave an IC50 (MCF7 cell line; Homo sapiens, MCF7, MCF7 cell line, MTT) of 0.053 ± 0.002 µM, a Toxicity % (MCF7 cell line; MCF7, 0.0487 µMol) of 48.12% and a Viability % (MCF7 cell line; MCF7, 0.0487 µMol) of 51.88%. For the same compound, the Toxicity % (MCF7 cell line; MCF7, 0.0975 µMol) was 52.667%, the Viability % (MCF7 cell line; MCF7, 0.0975 µMol) was 47.34% and the Toxicity % (MCF7 cell line; MCF7, 0.195 µMol) was 56.34%. The Viability % (MCF7 cell line; MCF7, 0.195 µMol) was 43.66%, the Toxicity % (MCF7 cell line; MCF7, 0.391 µMol) was 62.87% and the Viability % (MCF7 cell line; MCF7, 0.391 µMol) was 37.13%. For the same compound, the Toxicity % (MCF7 cell line; MCF7, 0.781 µMol) was 73.56%, the Viability % (MCF7 cell line; MCF7, 0.781 µMol) was 26.44% and the Toxicity % (MCF7 cell line; MCF7, 1.562 µMol) was 80.23%. For the same compound, the Viability % (MCF7 cell line; MCF7, 1.562 µMol) was 19.77%, the Toxicity % (MCF7 cell line; MCF7, 3.125 µMol) was 90.87% and the Viability % (MCF7 cell line; MCF7, 3.125 µMol) was 9.13%. It also gave a Toxicity % (MCF7 cell line; MCF7, 6.25 µMol) of 93.45%, a Viability % (MCF7 cell line; MCF7, 6.25 µMol) of 6.55% and a Toxicity % (MCF7 cell line; MCF7, 12.5 µMol) of 97.46%. The Viability % (MCF7 cell line; MCF7, 12.5 µMol) was 2.542%, the Toxicity % (MCF7 cell line; MCF7, 25 µMol) was 98.45% and the Viability % (MCF7 cell line; MCF7, 25 µMol) was 1.556%. For the same compound, the IC50 (A549 cell line) was 0.218 ± 0.005 µM, the viability at 1.55 µM [1] was 84.1% and the viability at 6.25 µM [1] was 64.5%. It also gave a viability at 12.5 µM [1] of 52.4%, a viability at 25 µM [1] of 31.1% and an IC50 (WI-38 cell line; Homo sapiens, WI-38, normal human fetal lung fibroblast WI-38) of 11.4 µM. For the same compound, the “Selectivity index (SI)” value (WI-38 cell line; IC50 in WI-38 / IC50 in A549) was 52 and 52.4, the “% viability” value (WI-38 cell line; 1.55 µM) was 84.08% and the “% viability” value (WI-38 cell line; 3.25 µM) was 72.52%. For the same compound, the “% viability” value (WI-38 cell line; 12.5 µM) was 52.38%, the “% viability” value (WI-38 cell line; 25 µM) was 31.09% and the IC50 (WI-38 cell line; normal human fetal lung fibroblast WI-38) was 11.4 ± 0.37 µM.

In the case of NC(=O)Nc1sc(-c2ccc(F)cc2)cc1C(N)=O [TPCA-1, reference compound], the “%inh” value (IKB kinase B; conc 0.01 (log -2)) is reported as 32.5%, the “%inh” value (IKB kinase B; conc 0.1 (log -1)) is reported as 53.6% and the “%inh” value (IKB kinase B; conc 1 (log 0)) is reported as 71.3%. The “%inh” value (IKB kinase B; conc 10 (log 1)) was 88.6% and the “%inh” value (IKB kinase B; conc 100 (log 2)) was 95.2%.
